Structures can show the parent of a compound that is named as a salt.
Target: T1, Human FAAH (Homo sapiens, UniProt O00519)
T1 construct: The full length FAAH was subcloned into the mammalian expression vector, peDEF.neo
T1 sequence (O00519 1-579): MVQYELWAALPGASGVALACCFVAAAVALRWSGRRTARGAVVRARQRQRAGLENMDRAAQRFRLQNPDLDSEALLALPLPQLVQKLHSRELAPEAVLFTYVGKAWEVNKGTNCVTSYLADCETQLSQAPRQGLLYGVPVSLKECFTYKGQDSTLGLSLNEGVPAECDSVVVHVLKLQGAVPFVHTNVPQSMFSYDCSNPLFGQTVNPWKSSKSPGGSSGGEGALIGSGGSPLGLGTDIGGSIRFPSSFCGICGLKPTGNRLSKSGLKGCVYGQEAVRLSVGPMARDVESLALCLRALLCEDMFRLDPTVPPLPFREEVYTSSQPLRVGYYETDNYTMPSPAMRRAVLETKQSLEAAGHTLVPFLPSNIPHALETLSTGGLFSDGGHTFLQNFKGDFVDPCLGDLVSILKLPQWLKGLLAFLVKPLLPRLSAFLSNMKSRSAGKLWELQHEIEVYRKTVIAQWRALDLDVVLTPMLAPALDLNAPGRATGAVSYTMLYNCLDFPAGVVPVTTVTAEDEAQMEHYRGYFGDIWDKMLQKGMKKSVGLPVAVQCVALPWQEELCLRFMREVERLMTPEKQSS
Test: Human FAAH lysate assay (CHO cell lysate expressing FAAH, AAMCA or 3H-anandamide hydrolysis)
Assay type: biochemical
Settings: B series; read-out: Human FAAH lysate assay: IC50
Description: To assist in assay development stable cell lines for human, murine and rat full length FAAH were developed. […] The full length FAAH was subcloned into the mammalian expression vector, peDEF.neo, using XbaI and EcoRI restriction sites and used for stable cell line generation.
CHO cells expressing FAAH were used to prepare either crude cell lysate or microsome fractions. To harvest cells, tissue culture media was decanted, the monolayer washed three times with Ca^++Mg^++ free PBS and cells recovered after […] in enzyme free dissociation media (Millipore Corp, Billerica, Mass.). Cells were collected by centrifuging at 2000 rpm for 15 min. and the cell pellet re-suspended with 50 mM HEPES (pH 7.4) containing 1 mM EDTA and the protease inhibitors aprotinin (1 mg/ml) and leupeptin (100 μM). The suspension was sonicated at 4° C. and the cell lysate recovered after centrifuging at 12,000×g (14,600 rpm, SS34 rotor) for 20 min at 4° C. to form a crude pellet of cell debris, nuclei, peroxisomes, lysosomes, and mitochondria; the supernatant or cell lysate was used for FAAH enzyme assay. In some cases, microsomes fractions enriched in FAAH were prepared by centrifuging the cell lysate further at 27,000 rpm (100,000×g) in SW28 rotor for 50 minutes at 4° C. The pellet containing FAAH-enriched microsomes was re-suspend in 50 mM HEPES, (pH 7,4) 1 mM EDTA, and any remaining DNA sheared by passage of material through a 23 gauge needle and aliquots of enzyme were store at −80° C. prior to use.
Assays are performed on either cell lysate or microsome fractions prepared as described or in whole cell format employing either the fluorescent substrate AAMCA (Cayman chemical, Ann Arbor, Mich.,) or ^3H-anandamide ([ETHANOLAMINE-1-3H] American Radiolabeled Chemicals; 1 mCi/ml). The cell lysate or microsome assay is performed in Costar black wall, clear bottom plates by adding FAAH_CHO (whole cell, cell lysate or microsome) in assay buffer (50 mM Phosphate, pH 8.0, 1 mM EDTA, 200 mM KCl, 0.2% glycerol, 0.1% fatty acid free BSA) to each well, followed by either DMSO or compound and allowed to incubate at 22-25° C. for fifteen minutes. AAMCA substrate was used to achieve a final concentration of 1 μM and reaction allowed to proceed at room temperature for 1-3 hours. […] Whole cell assay is conducted with cells harvested after rinsing tissue culture flasks three times with Ca^++Mg^++ free PBS, incubating for 10 mm in Enzyme free dissociation media and centrifuging for 5 minutes at 1,000 rpm in table top centrifuge. Cells are resuspended in assay buffer at desired cell number in (4×10^4 cells/assay in 96-well format; 1×10^4 cells/assay in 384-well format) and assayed as described.
Alternatively, assays are performed using anandamide [ethanolamine 1-^3H] (specific activity of 10 Ci/mmol) diluted with cold anandamide to achieve a final assay concentration of 1 μM anandamide (˜50,000 cpm). Enzyme (CHO cell lysate, brain or liver homogenate) is incubated in assay buffer (50 mM Phosphate, pH 8.0, 1 mM EDTA, 200 mM KCl, 0.2% glycerol, 0.1% fatty acid free BSA) with inhibitor at 25° C. for 30 minutes. The reaction was terminated by addition of 2 volumes of chloroform:methanol (1:1) and mixed by vortexing. Following a centrifugation step, 2000 rpm for 10 min. at room temperature, the aqueous phase containing the released […] was recovered and quantitated by liquid scintillation as a reflection of FAAH enzyme activity.

`Cn1cnc(-c2ccc([C@H]3C[C@@H]3CO)cc2)c1Sc1ccc(Cl)cn1` [Example 23B, [(1S,2S)-2-(4-{5-[(5-Chloropyridin-2-yl)thio]-1-methyl-1H-imidazol-4-yl}phenyl)cyclopropyl]methanol] was tested. Which IC50 did it give?
The IC50 was 88.4 nM.

`Cn1cnc(-c2ccc([C@H]3C[C@@H]3c3nn(C)c(=O)o3)cc2)c1Sc1ccc(Cl)cn1` [Example 3013, 5-[(1S,2S)-2-(4-{5-[(5-chloropyridin-2-yl)thio]-1-methyl-1H-imidazol-4-yl}phenyl)cyclopropyl]-3-methyl-1,3,4-oxadiazol-2(3H)-one] was tested. Which IC50 did it give?
Its IC50 is 171 nM.

How did the IC50 turn out when `Cn1cnc(-c2ccc([C@H]3C[C@@H]3c3ncon3)cc2)c1Sc1ccc(Cl)cn1` [Example 35B, 5-chloro-2-[(1-methyl-4-{4-[(1S,2S)-2-(1,2,4-oxadiazol-3-yl)cyclopropyl]phenyl}-1H-imidazol-5-yl)thio]pyridine] was run?
The IC50 was 58.4 nM.

`Cn1cnc(-c2ccc([C@H]3C[C@@H]3c3n[nH]c(=O)n3C)cc2)c1Sc1ccc(Cl)cn1` [Example 34B, 5-[(1S,2S)-2-(4-{5-[(5-chloropyridin-2yl)thio]-1-methyl-1H-imidazol-4-yl}phenyl)cyclopropyl]-4-methyl-2,4-dihydro-3H-1,2,4-triazol-3-one] was tested. Which IC50 did it give?
The IC50 was 893 nM.

Which IC50 does the source give for `CN(C)C(=O)[C@H]1C[C@@H]1c1ccc(-c2ncn(CCF)c2Sc2ccc(Cl)cn2)cc1` [Example 14B, 5-[(5-Chloropyridin-2-yl)thio]-4-(4-{(1S,2S)-2-[(dimethylamino)carbonyl]cyclopropyl}phenyl)-1-(2-fluoroethyl)-1H-imidazol-3-ium trifluoroacetate] here?
The IC50 was 3.2 nM.

Which IC50 does the source give for `Cn1nnc([C@H]2C[C@@H]2c2ccc(-c3ncn(C)c3Sc3ccc(Cl)cn3)cc2)n1` [Example 38B, 5-chloro-2-[(1-methyl-4-{4-[(1 S,2S)-2-(2-methyl-2H-tetrazol-5-yl)cyclopropyl]phenyl}-1H-imidazol-5-yl)thio]pyridine] here?
Its IC50 is 37 nM.

How did the IC50 turn out when `COC(=O)[C@H]1C[C@@H]1c1ccc(-c2ncn(C)c2Sc2ccc(Cl)cn2)cc1` [Example 21B, Methyl (1S,2S)-2-(4-{5-[(5-chloropyridin-2-yl)thio]-1-methyl-1H-imidazol-4-yl}phenyl)cyclopropanecarboxylate] was run?
Its IC50 is 0.2 nM.

How did the IC50 turn out when `CN(CCF)C(=O)[C@H]1C[C@@H]1c1ccc(-c2ncn(C)c2Sc2ccc(Cl)cn2)cc1` [Example 11B, (1S,2S)-2-(4-{5-[(5-Chloropyridin-2-yl)thio]-1-methyl-1H-imidazol-4-yl}phenyl)-N-(2-fluoroethyl)-N-methylcyclopropanecarboxamide] was run?
The IC50 was 3 nM.

`Cc1nc(-c2ccc([C@@H]3C[C@H]3C(=O)N(C)C)cc2)c(Sc2ccc(Cl)cn2)n1C` [Example 12B, (1R,2R)-2-(4-{5-[(5-Chloropyridin-2-yl)thio]-1,2-dimethyl-1H-imidazol-4-yl}phenyl)-N,N-dimethylcyclopropanecarboxamide] was tested. Which IC50 did it give?
The IC50 was 13.6 nM.

`CN(C)C(=O)C1CC1c1ccc(-c2nc(C3CC3)n(C)c2Sc2ccc(Cl)cn2)cc1` (stereo not shown) [Example 13B, 5-[(5-Chloropyridin-2-yl)thio]-2-cyclopropyl-4-(4-{2-[(dimethylamino)carbonyl]cyclopropyl}phenyl)-1-methyl-1H-imidazol-3-ium trifluoroacetate] was tested. Which IC50 did it give?
The IC50 was 48.3 nM.

Which IC50 does the source give for `CN(C)C(=O)[C@H]1C[C@@H]1c1ccc(-c2ncn(C)c2Sc2ccc(Cl)cc2)cc1` [Example 9B] here?
Its IC50 is 0.3 nM.

For `CN(C)C(=O)C1CC1c1ccc(-c2ncn(C)c2Sc2ccc(Cl)cn2)cc1` (stereo not shown) [Example 1B, 2-(4-{5[(5-Chloropyridin-2yl-)thio]-1-methyl-1H-imidazol-4-yl}phenyl)-N,N-dimethylcyclopropanecarboxamide], which IC50 is on record?
Its IC50 is 1.4 nM.

`Cc1nnc([C@H]2C[C@@H]2c2ccc(-c3ncn(C)c3Sc3ccc(Cl)cn3)cc2)o1` [Example 19B, 5-Chloro-2-[(1-methyl-4-{4-[(1S,2S)-2-(5-methyl-1,3,4-oxadiazol-2-yl)cyclopropyl]phenyl}-1H-imidazol-5-yl)thio]pyridine] was tested. Which IC50 did it give?
Its IC50 is 46 nM.

With `Cn1cnc(-c2ccc([C@H]3C[C@@H]3c3n[nH]c(=S)[nH]3)cc2)c1Sc1ccc(Cl)cn1` [Example 32B, 5-[(1S,2S)-2-(4-{5-[(5-chloropyridin-2-yl)thio]-1-methyl-1H-imidazol-4-yl}phenyl)cyclopropyl]-2,4-dihydro-3H-1,2,4-triazole-3-thione] as the molecule, how does the IC50 read?
Its IC50 is 304 nM.

For `COc1nnc([C@H]2C[C@@H]2c2ccc(-c3ncn(C)c3Sc3ccc(Cl)cn3)cc2)o1` [Example 18B, 5-Chloro-2-[(4-{4-[(1S,2S)-2-(5-methoxy-1,3,4-oxadiazol-2-yl)cyclopropyl]phenyl}-1-methyl-1H-imidazol-5-yl)thio]pyridine], which IC50 is on record?
Its IC50 is 15.6 nM.

`Cn1cnc(-c2ccc([C@H]3C[C@@H]3c3n[nH]c(=O)o3)cc2)c1Sc1ccc(Cl)cn1` [Example 17B, 5-[(1S,2S)-2-(4-{5-[(5-Chloropyridin-2-yl)thio]-1-methyl-1H-imidazol-4-yl}phenyl)cyclopropyl]-1,3,4-oxadiazol-2(3H)-one] was tested. Which IC50 did it give?
The IC50 was 4.5 nM.

How did the IC50 turn out when `Cn1cnc(-c2ccc([C@H]3C[C@@H]3c3nn[nH]n3)cc2)c1Sc1ccc(Cl)cn1` [Example 37B, 5-[(5-chloropyridin-2-yl)thio]-1-methyl-4-{4-[(1S,2S)-2-(2H-tetrazol-5-yl)cyclopropyl]phenyl}-1H-imidazol-3-ium trifluoroacetate] was run?
The IC50 was 167 nM.

Which IC50 does the source give for `CN(C)C(=O)[C@H]1C[C@@H]1c1ccc(-c2ncn(C)c2Sc2ccc(Cl)cn2)cc1` [Example 5B, (1S,2S)-2-(4-{5-[(5-Chloropyridin-2-yl)thio]-1-methyl-1H-imidazol-4-yl}phenyl)-N,N-dimethylcyclopropanecarboxamide] here?
The IC50 was 1 nM.

Same assay, conditions: tables of the B series; read-out: hFAAH lysate IC50

For `Cn1cnc(-c2ccc([C@H]3C[C@@H]3c3n[nH]c(=O)o3)cc2)c1Sc1ccc(F)cc1F` [Example 41B], which IC50 is on record?
The IC50 was 1.3 nM.

`CNC(=O)[C@H]1C[C@@H]1c1ccc(-c2ncn(CCF)c2Sc2ccc(Cl)cn2)cc1` [Example 15B] was tested. Which IC50 did it give?
Its IC50 is 5.8 nM.

`Cn1cnc(-c2ccc([C@H]3C[C@@H]3C(N)=O)cc2)c1Sc1ccc(Cl)cn1` [Example 7B] was tested. Which IC50 did it give?
The IC50 was 3.3 nM.

For `CNC(=O)[C@H]1C[C@@H]1c1ccc(-c2ncn(C)c2Sc2ccc(Cl)cn2)cc1` [Example 6B], which IC50 is on record?
The IC50 was 1.1 nM.

With `CC(C)c1ccc(Sc2c(-c3ccc([C@H]4C[C@@H]4c4n[nH]c(=O)o4)cc3)ncn2C)cc1` [Example 43B] as the molecule, how does the IC50 read?
Its IC50 is 20 nM.

Which IC50 does the source give for `Cn1cnc(-c2ccc([C@H]3C[C@@H]3c3n[nH]c(=O)o3)cc2)c1Sc1ccc(Cl)cc1F` [Example 42B] here?
The IC50 was 1.8 nM.

`CNC(=O)C1CC1c1ccc(-c2ncn(C)c2Sc2ccc(Cl)cn2)cc1` (stereo not shown) [Example 3B] was tested. Which IC50 did it give?
Its IC50 is 1.4 nM.

For `Cn1cnc(-c2ccc([C@H]3C[C@@H]3c3n[nH]c(=O)o3)cc2)c1Sc1ccc(Cl)cc1` [Example 39B], which IC50 is on record?
Its IC50 is 24 nM.

`NC(=O)[C@H]1C[C@@H]1c1ccc(-c2ncn(CCF)c2Sc2ccc(Cl)cn2)cc1` [Example 16B] was tested. Which IC50 did it give?
Its IC50 is 12.7 nM.

How did the IC50 turn out when `Cn1cnc(-c2ccc([C@H]3C[C@@H]3C(=O)NC(C)(C)C)cc2)c1Sc1ccc(Cl)cn1` [Example 8B] was run?
The IC50 was 196 nM.
